Values belong to the compound of their own block, whether it stands above or below them.
How the values were obtained:
Assay type in all cases: physicochemical
[1] = stability constants of Cu(II) complexes by pH-potentiometry; details: for logβ [CuLH−1] / logβ [CuLH−2]− / logβ [CuL]+: 25 °C, I = 0.10 M (KCl); for pCu(II) (−log[Cu(II)]): calculated at pH 7.4, cCu(II) = 1 μM, cligand = 10 μM
Procedure: Interaction between Pro-SISC-Me and Cu(II) ions could be studied by pH-potentiometry in water due to the adequate solubility of the species (Figure S7b), and the calculated overall stability constants are collected in Table 2. Based on the titration data, formation of only mono-ligand complexes ([CuL]^+, [CuLH−1], [CuLH−2]^−) was observed even at higher metal-to-ligand ratios. Stability constants for the complexes formed with the more lipophilic SISC were determined in the presence of 30% (v/v) DMSO/H2O (Figure S7a), and for the Cu(II)—Pro-SISC-Me system was studied as well in the same solvent system for comparison (Table 2). […] In the case of SISC, the stability constant could not be obtained for the [CuLH−2]^− species as in its formation pH range (>8) precipitation appeared in the solution. The thiosemicarbazone analogues (STSC and Pro-STSC-Me) also form exclusively mono-ligand complexes ([CuLH]^+, [CuL], [CuLH−1]^−), however, protonated complexes could not be found for SISC and Pro-SISC-Me.
(§1) The pH-potentiometric measurements for the determination of the proton dissociation constants of the ligands and the overall stability constants of the metal complexes were carried out at 25.0 ± 0.1 °C in water or in 30% (v/v) DMSO/H2O as solvent and at an ionic strength of 0.10 M (KCl). The titrations were performed with carbonate-free KOH solution of known concentration (0.10 M). The concentrations of the base and the HCl were determined by pH-potentiometric titrations. An Orion 710A pH-meter equipped with a Metrohm combined electrode (type 6.0234.100), and a Metrohm 665 Dosimat burette were used for the titrations. […] The average water ionization constant pKw was 13.76 ± 0.05 (water) or 14.52 ± 0.05 (30% (v/v) DMSO/H2O). The pH-potentiometric titrations were performed in the pH range 2.0–12.5. The initial volume of the samples was 10.0 mL. The ligand concentration was 2 mM and metal ion-to-ligand ratios of 1:1–1:3 were used. The accepted fitting of the titration curves was always less than 0.01 mL. Argon was always passed over the solutions during the titrations. The exact concentration of the ligand stock solutions together with the proton dissociation constants were determined by pH-potentiometric titrations with the use of the computer program HYPERQUAD [44]. It was also utilized to establish the stoichiometry of the complexes and to calculate the stability constants (β(MpLqHr)). β(MpLqHr) is defined for the general equilibrium pM + qL + rH ⇋ MpLqHr as β(MpLqHr) = [MpLqHr]/[M]^p[L]^q[H]^r, where M denotes the metal ion and L the completely deprotonated ligand. In all calculations exclusively, titration data were used from experiments in which no precipitate was visible in the reaction mixture.

[2] = proton dissociation constants by pH-potentiometry; details: for pK1 (H3L2+) / pK2 (H2L+) / pK3 (HL): Pro-SISC-Me; for pK1 (H3L2+) / pK2 (H2L+) / pK3 (HL) / pK1 (H2L+) / pK2 (HL): pH-pot.; for fraction present as H2L+ at pH 7.4 / fraction present as HL at pH 7.4: based on the pKa values; for fraction present as HL at pH 7.4: HL neutral (zwitter ionic for Pro-SISC-Me); for pK1 (H2L+) / pK2 (HL): SISC
Procedure: as §1

[3] = stability constants of Fe(III) complexes by pH-potentiometry; details: 30% (v/v) DMSO/H2O; for pFe(III)* (−logΣ[Fe(III)i(OH)j]): calculated at pH 7.4, cFe = 1 μM, cligand = 10 μM
Procedure: as §1

[4] = cyclic voltammetry of the iron complexes; details: for cathodic peak potential of the iron complexes at pH 7.6: pH 7.6, 1:2 metal-to-ligand, E vs. Ag/AgCl/KCl (Figure S13b)
Description: Further differences were observed when the redox behavior of the iron complexes was monitored by cyclic voltammetry. In the case of SISC, only a cathodic peak could be observed in the pH range of the formation of the Fe(III) complexes (not shown), unlike for Pro-SISC-Me (Figure 8b), where quasi-reversible processes could be seen in a wide pH range (3.9–10.8). The cathodic peak measured at pH 7.6 was located at much lower potential than in the case of the SISC complex (−0.59 V vs. −0.38 V, Figure S13b). […] To reveal the coordination mode in the Fe(III)-Pro-SISC-Me complexes, crystallization experiments were performed and single crystals were obtained for the Na[Fe(III)(Pro-SISC-MeH−2)2](H2O)4 complex.
Cyclic voltammograms of the Cu(II) and Fe(III) complexes in 30% (v/v) DMSO/H2O containing 1 mM Cu(NO3)2 or 1 mM or 0.5 mM FeCl3 and 1 mM ligand were recorded at 25.0 ± 0.1 °C. Ionic strength was 0.10 M (TBAN). Measurements were performed on a conventional three-electrode system under nitrogen atmosphere using an Autolab PGSTAT 204 potentiostat/galvanostat monitored by Metrohm’s Nova software (Metrohm Autolab B.V., Utrecht, The Netherlands). Samples were purged with argon for 15 min before recording the cyclic voltammograms. Platinum electrodes were used as the working and auxiliary electrode and Ag/AgCl/3 M KCl as a reference electrode. The electrochemical system was calibrated with an aqueous solution of K3[Fe(CN)6] (E1/2 = +0.386 V vs. NHE).

logβ [CuLH−1] ([1]; 30% DMSO): 6.57 ± 0.05
logβ [CuLH−2]− ([1]; 30% DMSO): −4.42 ± 0.06
logβ [CuL]+ ([1]; 30% DMSO): 15.08 ± 0.02
logβ [CuLH−1] ([1]; H2O): 6.96 ± 0.03
logβ [CuLH−2]− ([1]; H2O): −3.22 ± 0.04
logβ [CuL]+ ([1]; H2O): 14.99 ± 0.02
fraction of [CuL]+ at pH 7.4 ([1]; based on the stability constants): 100%
pCu(II) (−log[Cu(II)]) ([1]; 30% DMSO): 13.39
pCu(II) (−log[Cu(II)]) ([1]; H2O): 13.59
pK1 (H3L2+) ([2]; 30% DMSO/H2O): 1.80 ± 0.08
pK2 (H2L+) ([2]; 30% DMSO/H2O): 7.08 ± 0.02
pK3 (HL) ([2]; 30% DMSO/H2O): 9.91 ± 0.02
pK1 (H3L2+) ([2]; H2O, 25 °C, I = 0.10 M (KCl)): 2.52 ± 0.08
pK2 (H2L+) ([2]; H2O, 25 °C, I = 0.10 M (KCl)): 7.25 ± 0.06
pK3 (HL) ([2]; H2O, 25 °C, I = 0.10 M (KCl)): 9.61 ± 0.05
fraction present as H2L+ at pH 7.4 [2]: 33%
fraction present as HL at pH 7.4 [2]: 67%
logβ [Fe(III)L2H−1] ([3]; 25 °C, I = 0.10 M (KCl)): 18.40 ± 0.07
logβ [Fe(III)L2H−2]− ([3]; 25 °C, I = 0.10 M (KCl)): 8.64 ± 0.08
logβ [Fe(III)L2]+ ([3]; 25 °C, I = 0.10 M (KCl)): 27.63 ± 0.05
logβ [Fe(III)L]2+ ([3]; 25 °C, I = 0.10 M (KCl)): 15.25 ± 0.04
pFe(III)* (−logΣ[Fe(III)i(OH)j]) [3]: 10.0
E1/2 of the Fe(III)/Fe(II) redox couple of the iron complexes ([4]; 30% (v/v) DMSO/H2O, 1:2 metal-to-ligand ratio): −0.32 V vs. NHE
cathodic peak potential of the iron complexes at pH 7.6 ([4]; 30% (v/v) DMSO/H2O): −0.59 V
SMILES: Cc1cc(C=NNC(=N)N)c(O)c(CN2CCCC2C(=O)O)c1 (centres unmarked) [Pro-SISC-Me]

logβ [CuLH−1] ([1]; 30% DMSO): 6.28 ± 0.07
logβ [CuL]+ ([1]; 30% DMSO): 14.74 ± 0.02
pCu(II) (−log[Cu(II)]) ([1]; 30% DMSO): 12.08
pK1 (H2L+) ([2]; 30% DMSO/H2O): 7.62 ± 0.03
pK2 (HL) ([2]; 30% DMSO/H2O): 10.63 ± 0.02
pK1 (H2L+) ([2]; H2O, 25 °C, I = 0.10 M (KCl)): 7.64 ± 0.09
pK2 (HL) ([2]; H2O, 25 °C, I = 0.10 M (KCl)): 9.96 ± 0.09
fraction present as H2L+ at pH 7.4 [2]: 64%
fraction present as HL at pH 7.4 [2]: 36%
logβ [Fe(III)L2]+ ([3]; 25 °C, I = 0.10 M (KCl)): 27.46 ± 0.05
logβ [Fe(III)L]2+ ([3]; 25 °C, I = 0.10 M (KCl)): 14.96 ± 0.05
pFe(III)* (−logΣ[Fe(III)i(OH)j]) [3]: 7.9
cathodic peak potential of the iron complex (only a cathodic peak) ([4]; [Fe(III)L2]+ complex): −0.17 V vs. NHE
cathodic peak potential of the iron complexes at pH 7.6 ([4]; 30% (v/v) DMSO/H2O): −0.38 V
SMILES: N=C(N)NN=Cc1ccccc1O [SISC, 2-(2-hydroxybenzylidene)hydrazinecarboximidamide]
